From paper PMC9828300 (2022)

How the values were obtained:
[1] = tested on: Olig (oligonucleotide fragment of the UCP1 gene promoter; Oligo) (DNA, G4) CGAGGGTGGGTAGGAGGGGACGCGGGGACT; assay: UV-vis absorption; details: 100 mM KCl; 10 mM Tris-HCl pH 7.4, 25°C; 6 μM DNA, 24 μM berberine; ~45% hypochromicity, 340 to 348 nm
[2] = tested on: Olig (oligonucleotide fragment of the UCP1 gene promoter; Oligo) (DNA, G4) CGAGGGTGGGTAGGAGGGGACGCGGGGACT; assay: fluorescence enhancement; details: 100 mM KCl; 10 mM Tris-HCl pH 7.4, 25°C; 6 μM DNA, 24 μM berberine; excitation 280 nm
[3] = tested on: Olig (oligonucleotide fragment of the UCP1 gene promoter; Oligo) (DNA, G4) CGAGGGTGGGTAGGAGGGGACGCGGGGACT; assay: native gel electrophoresis; details: 100 mM KCl; 10 mM Tris-HCl pH 7.4, 4°C overnight; 6 μM DNA, 24 μM berberine; Uni-G4 to Tetra-G4

Measured: binding

COc1ccc2cc3[n+](cc2c1OC)CCc1cc2c(cc1-3)OCO2
yes: all assays above
